Measurements published in patent publication US20260240850A1, “Compositions and Methods for Treating MALT1 Associated Diseases” (Rarefied Biosciences, Inc., priority 2023, published 2026).

How the values were obtained:
[1] = system: T cells that lack endogenous CARD11 and bear transfected CARD11 gain-of-function mutations; κB-GFP readout of NFκB signaling; test: NF-κB-GFP reporter in T cells transfected with CARD11 gain-of-function cDNA (Example 1); format: cell-based; conditions: T cells with CARD11 GOF variants; baseline and after anti-CD3 or PMA/ionomycin; flow cytometry
Protocol: MALT1 inhibitors (e.g., Compounds 1.1, 1.26, 1.27, 1.30, 1.33, 2.1, and/or 2.4) are incubated with T cells that lack endogenous CARD11 and bear transiently transfected CARD11 cDNA bearing gain-of-function mutations. An optional variation is co-transfecting 50:50 a copy of the wildtype CARD11 gene with the CARD11 gain of function mutant. The T-cells include a reporter gene (κB-GFP) that acts as a readout of NFκB signaling. The expression of NF-κB-GFP at baseline and after anti-CD3, or PMA/ionomycin stimulation is measured.
T-Cells bearing GOF variants of CARD11 have elevated baseline activation of NF-κB-GFP, and higher still after stimulation, which is assessed by flow cytometry.

patients with BENTA = test: Clinical trial of MALT1 inhibitors for BENTA (Example 2); format: in vivo; conditions: oral once daily, 25 mg/day up to 1000 mg/day
Protocol: MALT1 inhibitors (e.g., Compounds 1.1, 1.26, 1.27, 1.30, 1.33, 2.1, and/or 2.4) are used to treat patients with BENTA. MALT1 inhibitors (e.g., Compounds 1.1, 1.26, 1.27, 1.30, 1.33, 2.1, and/or 2.4) are formulated in an oral dosage form and administered to patients once daily at a starting dose of 25 mg/day. Alternatively, the daily dose is escalated from 25 mg/day to 1000 mg/day.

[2] = system: mTor pathway (e.g., mTORc1 and/or mTORc2) in primary T cells; test: mTor pathway activation in stimulated primary T cells, pAkt/pS6 staining (Example 3); format: cell-based; conditions: primary T cells after anti-CD3/anti-CD28 activation
Protocol: Primary T cells are stimulated to activation and cultured in the presence of IL-2. For stimulation, cells are preincubated with anti-CD3F and anti-CD28 on ice and washed. Cells were stimulated by crosslinking the anti-CD3 antibody with a secondary antibody (e.g., anti-mouse IgG for 10 min) in complete T cell media and then fixed with pre-warmed fixation buffer. Cells are then washed with FACS buffer and permeabilized with permeabilization buffer pre-chilled to −20° C. and incubated for 30 min on ice. Cells are washed and then stained with the following antibodies or appropriate isotype controls anti-pAkt (Ser473) and anti-pS6 (Ser240/244).
MALT1 inhibitors (e.g., Compounds 1.1, 1.26, 1.27, 1.30, 1.33, 2.1, and/or 2.4) are incubated with the primary T cells after activation.

[3] = system: epithelial cells (e.g., HEK293 cells) bearing CARD14 gain-of-function mutations; κB-GFP readout of NFκB signaling; test: NF-κB-GFP reporter in epithelial cells transfected with CARD14 gain-of-function cDNA (Example 4); format: cell-based; conditions: epithelial cells with CARD14 GOF variants; flow cytometry
Protocol: MALT1 inhibitors (e.g., Compounds 1.1, 1.26, 1.27, 1.30, 1.33, 2.1, and/or 2.4) are incubated with epithelial cells (e.g., HEK293 cells) that lack endogenous CARD14 and bear transiently transfected CARD14 cDNA bearing gain-of-function mutations. The epithelial cells include a reporter gene (κB-GFP) that acts as a readout of NFκB signaling. The expression of NF-κB-GFP at baseline and after anti-CD3, or PMA/ionomycin stimulation is measured.
Epithelial cells bearing gain of function variants of CARD14 have elevated baseline activation of NF-κB-GFP, and higher still after stimulation, which is assessed by flow cytometry.

full-length human MALT1 = molecular target: T1, full-length human MALT1 (Homo sapiens, UniProt Q9UDY8); test: MALT1 cleavage of HOIL1 (Example 5); format: biochemical; conditions: HOIL1 0.05 μg/μL with MALT1, 2 h at 37° C.; gel electrophoresis/immunoblot
T1 construct: Recombinant full-length human MALT1 protein was expressed and purified; made in house
T1 sequence (Q9UDY8 1-824): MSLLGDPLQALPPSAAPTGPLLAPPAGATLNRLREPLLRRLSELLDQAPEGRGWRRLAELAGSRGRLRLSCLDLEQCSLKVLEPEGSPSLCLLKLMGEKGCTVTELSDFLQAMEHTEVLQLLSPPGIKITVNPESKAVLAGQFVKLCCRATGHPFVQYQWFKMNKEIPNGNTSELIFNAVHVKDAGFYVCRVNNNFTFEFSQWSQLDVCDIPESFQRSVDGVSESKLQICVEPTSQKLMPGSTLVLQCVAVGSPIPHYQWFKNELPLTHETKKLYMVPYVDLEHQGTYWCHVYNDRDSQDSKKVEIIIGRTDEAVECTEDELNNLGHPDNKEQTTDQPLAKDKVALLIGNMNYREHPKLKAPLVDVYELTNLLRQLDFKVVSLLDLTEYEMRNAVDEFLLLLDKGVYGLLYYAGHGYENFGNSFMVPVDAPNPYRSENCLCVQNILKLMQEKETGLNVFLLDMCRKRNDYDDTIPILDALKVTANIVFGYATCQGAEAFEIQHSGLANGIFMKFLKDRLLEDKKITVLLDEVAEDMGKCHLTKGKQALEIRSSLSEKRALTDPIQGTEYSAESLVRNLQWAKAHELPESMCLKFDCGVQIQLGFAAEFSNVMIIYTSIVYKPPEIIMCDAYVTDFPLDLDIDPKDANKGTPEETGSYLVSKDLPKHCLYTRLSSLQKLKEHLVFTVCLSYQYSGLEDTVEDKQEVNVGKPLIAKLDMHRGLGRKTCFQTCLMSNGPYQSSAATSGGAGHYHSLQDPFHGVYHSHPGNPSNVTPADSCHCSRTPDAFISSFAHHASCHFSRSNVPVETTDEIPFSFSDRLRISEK
Protocol: Recombinant full-length human MALT1 protein was expressed and purified. C-terminal Myc-FLAG-tagged full-length human HOIL1 was obtained from Origene. HOIL1 protein (0.05 μg/μL) is incubated with different concentrations of MALT1 in assay buffer (200 mM Tris-HCl, 0.8 M Na citrate, 0.1 mM EGTA, 0.05% CHAPS, 1 mM DTT, pH 7.4) for 2 h at 37° C. Cleavage of HOIL1 was analyzed by gel electrophoresis using a 4-12% Bis-Tris SDS-polyacrylamide (PAGE) gradient gel (Life Technologies). The presence of a small fragment was confirmed by immunoblotting with an N-terminal antibody (anti-N-terminal HOIL1; HPA024185; Sigma). Total HOIL1 was observed using a C-terminal directed antibody (anti-FLAG, clone M2, Sigma). These assays are performed with both the cleavable HOIL1 and, as a negative control, a non-cleavable HOIL1 (where Lys is substituted for Arg165).

cleavage of HOIL1 (full-length human MALT1)	Compound	NF-κB-GFP expression [1]	BENTA symptoms (patients with BENTA)	Jun/Fos, NF-κB and/or mTor pathway activation in patients (patients with BENTA)	mTor pathway (mTORc1 and/or mTORc2) activation [2]	NF-κB-GFP expression [3]
cleavage of HOIL1 is reduced	CO[C@@H](C)c1c(Nc2ccc([C@@H](N(C)C(=O)C3CCS(=O)(=O)CC3)C(F)(F)F)cc2)cnc2nc(Cl)nn12 [Compound 1.26, N-[(1R)-1-[4-({2-chloro-7-[(1S)-1-methoxyethyl]-[L2,4]triazolo[1,5-a]pyrimidin-6-yl}amino)phenyl]-2,2,2-trifluoroethyl]-N-methyl-1,1-dioxo-1λ^6-thiane-4-carboxamide]	lowered NF-κB-GFP expression	amelioration of their BENTA symptoms	reduced Jun/Fos, and/or NF-κB and/or a mTor pathway (e.g., mTORc1 and/or mTORc2) activation	suppress mTor pathway (e.g., mTORc1 and/or mTORc2) activation	lowered NF-κB-GFP expression
cleavage of HOIL1 is reduced	CO[C@H](C)c1c(Nc2ccc([C@@H](N(C)C(=O)C3CCS(=O)(=O)CC3)C(F)(F)F)cc2)cnc2nc(Cl)nn12 [Compound 1.27, N—[(IR)—I-[4-({2-chloro-7-[(1R)-1-methoxyethyl]-[1,2,4]triazolo[1,5-a]pyrimidin-6-yl}amino)phenyl]-2,2,2-trifluoroethyl]-N-methyl-1,1-dioxo-1λ^6-thiane-4-carboxamide]	lowered NF-κB-GFP expression	amelioration of their BENTA symptoms	reduced Jun/Fos, and/or NF-κB and/or a mTor pathway (e.g., mTORc1 and/or mTORc2) activation	suppress mTor pathway (e.g., mTORc1 and/or mTORc2) activation	lowered NF-κB-GFP expression
cleavage of HOIL1 is reduced	CO[C@@H](C)c1c(Nc2ccc([C@H](N(C)C(=O)C3CCS(=O)(=O)CC3)C(F)(F)F)c(C)c2)cnc2nc(Cl)nn12 [Compound 1.30, N-[(1S)-1-[4-({2-chloro-7-[(1S)-1-methoxyethyl]-[1,2,4]triazolo[1,5-a]pyrimidin-6-yl}amino)-2-methylphenyl]-2,2,2-trifluoroethyl]-N-methyl-1,1-dioxo-1λ^6-thiane-4-carboxamide]	lowered NF-κB-GFP expression	amelioration of their BENTA symptoms	reduced Jun/Fos, and/or NF-κB and/or a mTor pathway (e.g., mTORc1 and/or mTORc2) activation	suppress mTor pathway (e.g., mTORc1 and/or mTORc2) activation	lowered NF-κB-GFP expression
cleavage of HOIL1 is reduced	CO[C@@H](C)c1c(Nc2ccc([C@H](N(C)C(=O)C3CCS(=O)(=O)CC3)C(F)(F)F)cc2C)cnc2nc(Cl)nn12 [Compound 1.33, N-[(1S)-1-[4-({2-chloro-7-[(1S)-1-methoxyethyl]-[1,2,4]triazolo [1,5-a]pyrimidin-6-yl}amino)-3-methylphenyl]-2,2,2-trifluoroethyl]-N-methyl 1,1-dioxo-1λ^6-thiane-4-carboxamide]	lowered NF-κB-GFP expression	amelioration of their BENTA symptoms	reduced Jun/Fos, and/or NF-κB and/or a mTor pathway (e.g., mTORc1 and/or mTORc2) activation	suppress mTor pathway (e.g., mTORc1 and/or mTORc2) activation	lowered NF-κB-GFP expression
cleavage of HOIL1 is reduced	CN(C(=O)[C@H]1CC[C@H](C(=O)O)CC1)[C@@H](c1ccc(Nc2cnn(-c3ccccc3)c2C(F)(F)F)cc1)C(F)(F)F [Compound 2.1]	lowered NF-κB-GFP expression	amelioration of their BENTA symptoms	reduced Jun/Fos, and/or NF-κB and/or a mTor pathway (e.g., mTORc1 and/or mTORc2) activation	suppress mTor pathway (e.g., mTORc1 and/or mTORc2) activation	lowered NF-κB-GFP expression
